pIC50: −log10 of the molar value. Where two headings read alike, the source gives them in different places. Square brackets hold non-standard residues; d marks the D form. Peptide text beside a SMILES is read from it. NMeThr(4R-Me,4-(CH2)6NHAc) = CN[C@H](C(=O)O)[C@H](O)[C@H](C)CCCCCCNC(C)=O; NMeL = CN[C@@H](CC(C)C)C(=O)O; NMeV = CN[C@H](C(=O)O)C(C)C; dNMeA = CN[C@H](C)C(=O)O; Abu = CC[C@H](N)C(=O)O
Experiments:
six human cell types = test: Cytotoxicity analysis, resazurin viability assay
Procedure: CRV431 cytotoxicity was evaluated in cell culture with six human cell types: Jurkat E6.1 lymphocyte cell line (88042803, person; Sigma-Aldrich), HepaRG hepatocyte cell line (HPRGC10, person; Life Technologies), primary renal epithelial cells (CC-2556, unknown gender; Lonza), primary dermal fibroblasts (CC-2511, person; Lonza), primary bronchial smooth muscle cells (CC-2576, person; Lonza), and primary umbilical vein endothelial cells (CC-2519, person; Lonza). Jurkat cells (suspension cell type) were plated at 35,000 cells/well in 96-well plates. All other cell types (adherent cell types) were plated 2500–10,000 cells/well (adherent cell types) in GelCol bovine collagen-coated (5167; Advanced Biomatrix) 96-well Nunc Edge 2.0 evaporation barrier plates (14387223; Thermo Scientific). Cell culture medium and culture conditions followed suppliers’ recommendations. […] Cell viability was assessed at the end of the 3-day culture period using the In Vitro Toxicology Assay (Tox8-1KT; Sigma-Aldrich). In this assay the oxidoreduction indicator dye, resazurin, is colorometrically converted in proportion to the number of viable cells and measured by absorbance or fluorescence. Fluorescence was measured (excitation 540 nm; emission 590 nm) with a BMG Polarstar Galaxy Microplate Reader.

[1] = CRV431 concentrations in blood and liver, mice; format: in vivo, mouse; conditions: for Liver:Blood [CRV431] Ratio: Mouse
Description: Male and female Sprague–Dawley rats and male C57BL/6 mice from the carbon tetrachloride and NASH studies were used to evaluate CRV431 pharmacokinetics and distribution. […] Terminal whole blood and livers were collected and frozen until drug extraction. Liver samples were homogenized in PBS or 1% formic acid (0.1 g–0.4 g liver sample per ml solvent) with bead-based homogenizers (TissueLyser or Beadruptor). […] Liver CRV431 concentrations were normalized to the masses of the liver samples.

[2] = tested on: CCl4-induced liver fibrosis in C57BL/6 mice; test: Carbon tetrachloride mouse model of liver fibrosis; format: in vivo; conditions: 50 mg/kg per day oral for 6 weeks, vs vehicle
Procedure: Carbon tetrachloride (CCl4)–induced liver fibrosis was conducted in C57BL/6J male mice starting at 7 weeks of age. Mice were injected intraperitoneally twice per week with 0.5–0.75 ml/kg CCL4 (289116; Sigma-Aldrich) and corn oil (0.05 ml total dose per mouse) for 6 weeks. CRV431, obeticholic acid (OCA, HY-12222; MedChemExpress), and vehicle were administered by daily oral gavage for the entire duration of the study. CRV431 and OCA were dissolved in a self-microemulsifying drug vehicle ([Trepanier et al., 2018]), and then diluted with PBS. CRV431 was administered at 50 mg/kg per day, and OCA was administered at 10 mg/kg per day.
Blood and livers were collected at the end of the NASH and CCl4 studies. In some studies, serum or plasma was isolated from freshly-collected blood, whereas in other studies blood was frozen for later analysis of CRV431 concentration. Livers were immersion-fixed in zinc-formalin and paraffin-embedded for histologic processing. Liver sections were stained with hematoxylin and eosin for assessment of inflammation, ballooning, and steatosis, and with sirius red for assessment of collagen I and III (fibrosis). Sirius red staining was quantified by blinded analysis in one section per liver using ImageJ software. […]

BCRP = BCRP (Homo sapiens, UniProt Q9UNQ0)
BCRP, sequence (Q9UNQ0 whole entry, canonical isoform): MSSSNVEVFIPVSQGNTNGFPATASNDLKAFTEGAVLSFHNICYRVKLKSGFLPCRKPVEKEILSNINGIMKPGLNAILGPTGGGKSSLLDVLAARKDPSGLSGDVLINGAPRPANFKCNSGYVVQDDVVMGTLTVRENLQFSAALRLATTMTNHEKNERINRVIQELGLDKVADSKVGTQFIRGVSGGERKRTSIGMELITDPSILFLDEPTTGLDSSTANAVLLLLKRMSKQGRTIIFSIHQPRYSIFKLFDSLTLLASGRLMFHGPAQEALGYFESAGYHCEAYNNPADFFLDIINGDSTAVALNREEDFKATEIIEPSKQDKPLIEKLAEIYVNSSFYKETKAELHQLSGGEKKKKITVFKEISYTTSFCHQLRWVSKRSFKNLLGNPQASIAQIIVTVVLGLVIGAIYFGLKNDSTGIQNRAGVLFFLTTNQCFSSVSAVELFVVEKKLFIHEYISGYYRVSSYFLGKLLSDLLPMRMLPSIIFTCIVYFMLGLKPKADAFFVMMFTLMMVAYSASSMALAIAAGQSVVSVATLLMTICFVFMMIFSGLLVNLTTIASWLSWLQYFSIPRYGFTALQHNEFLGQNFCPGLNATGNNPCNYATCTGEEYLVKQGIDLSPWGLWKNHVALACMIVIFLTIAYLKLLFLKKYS
Procedure: (§1) Briefly, PGP and breast cancer resistance protein inhibition was assessed by measuring the bidirectional transport of substrates across cell monolayers in transwell culture plates. Efflux ratios were represented as (apical-to-basal flux)/(basal-to-apical flux), and efflux ratios were plotted relative to CRV431 concentration to derive IC50 values. Bile salt export pump (BSEP) and multidrug resistance protein (MRP)1 inhibition was assessed by measuring substrate accumulation in membrane vesicles prepared from insect Sf9 cells and recombinantly expressing BSEP and MRP2 (Genomembrane). Inhibition of all other transporters was assessed by measuring substrate accumulation in cells recombinantly expressing the transporter. Known inhibitors of each transporter were used as positive controls for the assays. […] Specific, ATP-dependent uptake was determined by subtracting uptake in negative control vesicles and cells not expressing the transporters, and secondly by subtracting uptake in the absence of ATP in the assays. Specific, ATP-dependent uptake was plotted as a function of CRV431 concentrations and fitted to nonlinear regressions to obtain IC50 values.

[3] = target: cyclophilins A, B, D, and G; test: Cyclophilin isomerase assay, all isoforms tested; format: biochemical
Procedure: Cyclophilin isomerase activity was measured with an assay described by [Kofron et al. (1991)] with adaptations to 96-well plates. In this assay cyclophilins catalyze cis-to-trans isomerization of a proline peptide bond in a nitroanalide-coupled peptide substrate followed by cleavage of the trans-conformer peptide by α-chymotrypsin, release of the p-nitroaniline chromogen, and quantitation of p-nitroaniline by absorbance at 410 nm. All solutions were pre-equilibrated, and all assays were conducted at 4°C. Plates were preloaded with 5 µl peptide solution consisting of N-succinyl-alanine-alanine-proline-phenylalanine-p-nitroanilide (S7388; Sigma-Aldrich) and 400 mM lithium chloride (310468; Sigma-Aldrich) in anhydrous trifluoroethanol (T63002; Sigma-Aldrich). […] Cis-peptide represented 55% of the peptide isomers, based on initial reaction bursts, and therefore peptide concentration was corrected to 55% of input in subsequent calculations. […] Absorbance measurements with a BMG Polarstar Galaxy plate reader were begun immediately and made at 6-second intervals for 6 minutes. Reaction curves were represented by increases in optical density 410 nm as a function of reaction time. […]

MRP2 [4] = target: T1, MRP2 (Homo sapiens, UniProt Q92887); test: Drug transporter inhibition, MRP2; conditions: MRP2, Vesicles
T1 sequence (Q92887 whole entry): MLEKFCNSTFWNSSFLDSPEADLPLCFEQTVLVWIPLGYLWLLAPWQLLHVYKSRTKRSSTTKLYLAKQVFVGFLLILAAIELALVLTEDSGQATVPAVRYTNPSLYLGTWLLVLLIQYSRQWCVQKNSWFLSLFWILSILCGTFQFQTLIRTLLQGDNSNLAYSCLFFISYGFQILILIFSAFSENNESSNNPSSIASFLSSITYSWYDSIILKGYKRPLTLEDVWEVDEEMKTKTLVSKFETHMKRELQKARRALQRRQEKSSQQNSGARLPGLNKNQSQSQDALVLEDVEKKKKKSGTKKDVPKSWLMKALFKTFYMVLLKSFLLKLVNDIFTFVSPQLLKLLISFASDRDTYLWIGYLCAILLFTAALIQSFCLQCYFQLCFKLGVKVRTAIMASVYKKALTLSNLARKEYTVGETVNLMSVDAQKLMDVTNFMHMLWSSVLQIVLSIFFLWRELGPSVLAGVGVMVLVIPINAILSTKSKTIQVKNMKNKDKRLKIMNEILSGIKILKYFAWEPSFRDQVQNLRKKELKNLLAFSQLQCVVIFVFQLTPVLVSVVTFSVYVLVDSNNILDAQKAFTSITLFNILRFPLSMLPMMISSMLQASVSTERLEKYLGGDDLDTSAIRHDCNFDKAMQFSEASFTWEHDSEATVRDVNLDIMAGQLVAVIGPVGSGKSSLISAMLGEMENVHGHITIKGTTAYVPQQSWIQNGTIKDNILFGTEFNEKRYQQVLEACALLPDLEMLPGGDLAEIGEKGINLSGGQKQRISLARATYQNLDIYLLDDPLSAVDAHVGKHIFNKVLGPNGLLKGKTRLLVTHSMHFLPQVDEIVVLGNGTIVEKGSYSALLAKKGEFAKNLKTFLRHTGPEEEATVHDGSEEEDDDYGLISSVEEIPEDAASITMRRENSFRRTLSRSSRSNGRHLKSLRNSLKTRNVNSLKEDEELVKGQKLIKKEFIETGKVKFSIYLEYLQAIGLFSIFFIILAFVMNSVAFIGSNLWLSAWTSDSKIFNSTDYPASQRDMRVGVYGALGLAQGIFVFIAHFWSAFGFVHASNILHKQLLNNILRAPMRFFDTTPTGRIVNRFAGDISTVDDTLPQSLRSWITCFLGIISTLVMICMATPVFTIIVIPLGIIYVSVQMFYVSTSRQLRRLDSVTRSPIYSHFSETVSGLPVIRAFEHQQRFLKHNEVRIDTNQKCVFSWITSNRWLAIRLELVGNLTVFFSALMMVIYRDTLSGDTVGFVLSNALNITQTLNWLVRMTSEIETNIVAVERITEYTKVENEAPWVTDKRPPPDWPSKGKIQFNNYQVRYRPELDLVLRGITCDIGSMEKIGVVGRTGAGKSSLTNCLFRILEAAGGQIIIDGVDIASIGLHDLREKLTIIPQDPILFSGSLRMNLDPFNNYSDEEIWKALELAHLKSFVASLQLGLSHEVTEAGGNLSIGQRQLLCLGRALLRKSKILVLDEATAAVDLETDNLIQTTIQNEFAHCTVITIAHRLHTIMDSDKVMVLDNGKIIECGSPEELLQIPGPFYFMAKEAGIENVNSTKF
Procedure: (§2) Bile salt export pump (BSEP) and multidrug resistance protein (MRP)1 inhibition was assessed by measuring substrate accumulation in membrane vesicles prepared from insect Sf9 cells and recombinantly expressing BSEP and MRP2 (Genomembrane). Inhibition of all other transporters was assessed by measuring substrate accumulation in cells recombinantly expressing the transporter. Known inhibitors of each transporter were used as positive controls for the assays. […] Specific, ATP-dependent uptake was determined by subtracting uptake in negative control vesicles and cells not expressing the transporters, and secondly by subtracting uptake in the absence of ATP in the assays. Specific, ATP-dependent uptake was plotted as a function of CRV431 concentrations and fitted to nonlinear regressions to obtain IC50 values.

MRP2 [5] = target: T1, MRP2
Procedure: as §2

MATE-2 = target: T2, MATE-2 (Homo sapiens, UniProt Q86VL8); test: Drug transporter inhibition, MATE-2; format: in vitro ADME; conditions: MATE-2, HEK293
T2 construct: expressed in transfected cells
Procedure: Inhibition of all other transporters was assessed by measuring substrate accumulation in cells recombinantly expressing the transporter. Known inhibitors of each transporter were used as positive controls for the assays. […] Specific, ATP-dependent uptake was determined by subtracting uptake in negative control vesicles and cells not expressing the transporters, and secondly by subtracting uptake in the absence of ATP in the assays. Specific, ATP-dependent uptake was plotted as a function of CRV431 concentrations and fitted to nonlinear regressions to obtain IC50 values.

NTCP = target: T3, NTCP (Homo sapiens, UniProt Q14973); test: Drug transporter inhibition, NTCP; format: in vitro ADME
T3 construct: expressed in transfected cells
T3 sequence (Q14973 whole entry): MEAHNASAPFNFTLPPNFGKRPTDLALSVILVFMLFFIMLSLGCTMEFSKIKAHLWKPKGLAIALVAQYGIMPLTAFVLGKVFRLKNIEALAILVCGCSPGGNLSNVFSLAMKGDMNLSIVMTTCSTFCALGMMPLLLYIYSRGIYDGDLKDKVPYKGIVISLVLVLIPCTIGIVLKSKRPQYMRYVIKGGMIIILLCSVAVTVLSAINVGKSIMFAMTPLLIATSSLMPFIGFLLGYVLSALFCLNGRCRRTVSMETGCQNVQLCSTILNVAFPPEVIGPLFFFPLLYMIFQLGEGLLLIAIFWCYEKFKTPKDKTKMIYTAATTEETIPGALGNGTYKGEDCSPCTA
Procedure: as §1

[6] = Single oral dose pharmacokinetics in rats; conditions: single oral dose 10 mg/kg
Description: Male and female Sprague–Dawley rats and male C57BL/6 mice from the carbon tetrachloride and NASH studies were used to evaluate CRV431 pharmacokinetics and distribution. […] Terminal whole blood and livers were collected and frozen until drug extraction. Liver samples were homogenized in PBS or 1% formic acid (0.1 g–0.4 g liver sample per ml solvent) with bead-based homogenizers (TissueLyser or Beadruptor). […] Sample and standard compounds were extracted from blood and liver homogenates using a zinc sulfate/methanol precipitation method and quantified by liquid chromatography–electrospray ionization–mass spectrometry, as previously described ([Trepanier et al., 2018]). Liver CRV431 concentrations were normalized to the masses of the liver samples.
CRV431 pharmacokinetics in rats. […] Whole–blood concentrations of the two compounds were determined at the indicated time points. […] Means and S.D. shown.

[7] = tested on: human peripheral blood mononuclear cells; test: CFSE-PBMC proliferation; format: cell-based; conditions: highest tested concentration of 10 µM, 3 days
Procedure: Peripheral blood mononuclear cells (PBMC) were isolated by Ficoll Paque Plus centrifugation (17144003; GE Life Sciences) of venous blood from a healthy human volunteer. Cells were incubated for 5 minutes with 5 µg/ml carboxyfluorescein diacetate succinimidyl ester (C1157; Thermo Fisher) to produce stable intracellular carboxyfluorescein succinimidyl ester (CFSE) labeling (CFSE-PBMC). […] Cells were collected after 3 days of culture incubation, and flow cytometry was used to measure the partitioning of CFSE into daughter cells arising from cell division (discrete cell populations with successively halved CFSE content). Daughter cells as a percentage of all CFSE-labeled cells were normalized to DMSO treatment (100% stimulation) and wells without CD3 antibody coating (nonstimulated).

BSEP = BSEP (Homo sapiens, UniProt O95342)
BSEP, sequence (O95342 whole entry): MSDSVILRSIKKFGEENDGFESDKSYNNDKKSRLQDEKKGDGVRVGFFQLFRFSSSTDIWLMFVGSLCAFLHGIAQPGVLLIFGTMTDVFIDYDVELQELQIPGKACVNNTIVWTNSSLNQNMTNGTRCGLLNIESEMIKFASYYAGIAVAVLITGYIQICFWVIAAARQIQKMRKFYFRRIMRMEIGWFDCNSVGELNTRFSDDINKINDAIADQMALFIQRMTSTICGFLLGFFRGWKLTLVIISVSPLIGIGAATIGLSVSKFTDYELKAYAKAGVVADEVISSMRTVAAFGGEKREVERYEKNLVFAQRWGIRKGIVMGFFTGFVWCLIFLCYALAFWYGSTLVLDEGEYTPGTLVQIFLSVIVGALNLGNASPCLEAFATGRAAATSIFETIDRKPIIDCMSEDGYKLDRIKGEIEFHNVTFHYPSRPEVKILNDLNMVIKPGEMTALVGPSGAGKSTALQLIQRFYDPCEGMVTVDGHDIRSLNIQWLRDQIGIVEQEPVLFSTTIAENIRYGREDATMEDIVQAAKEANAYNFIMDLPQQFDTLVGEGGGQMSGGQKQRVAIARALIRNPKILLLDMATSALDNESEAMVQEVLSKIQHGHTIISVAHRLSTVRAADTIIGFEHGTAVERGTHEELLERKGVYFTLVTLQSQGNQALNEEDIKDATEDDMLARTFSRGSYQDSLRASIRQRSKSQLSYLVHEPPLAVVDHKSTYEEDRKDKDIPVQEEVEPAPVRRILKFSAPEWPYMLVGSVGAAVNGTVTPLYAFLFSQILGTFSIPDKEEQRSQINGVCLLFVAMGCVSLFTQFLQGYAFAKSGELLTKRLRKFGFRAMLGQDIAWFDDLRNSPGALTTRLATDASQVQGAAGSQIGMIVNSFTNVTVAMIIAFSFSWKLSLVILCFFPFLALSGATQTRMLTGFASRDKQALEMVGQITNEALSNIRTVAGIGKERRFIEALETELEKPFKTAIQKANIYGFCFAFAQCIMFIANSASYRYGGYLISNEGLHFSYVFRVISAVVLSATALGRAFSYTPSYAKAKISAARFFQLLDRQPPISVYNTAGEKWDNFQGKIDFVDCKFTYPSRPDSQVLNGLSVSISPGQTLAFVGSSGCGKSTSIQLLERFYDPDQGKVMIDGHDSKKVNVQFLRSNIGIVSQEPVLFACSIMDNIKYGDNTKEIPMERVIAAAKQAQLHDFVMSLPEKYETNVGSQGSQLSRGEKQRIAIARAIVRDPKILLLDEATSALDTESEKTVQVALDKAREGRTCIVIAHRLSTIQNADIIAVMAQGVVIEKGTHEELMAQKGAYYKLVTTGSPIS
Procedure: as §2

OATP1B3 = OATP1B3 (Homo sapiens, UniProt Q9NPD5)
OATP1B3, sequence (Q9NPD5 whole entry): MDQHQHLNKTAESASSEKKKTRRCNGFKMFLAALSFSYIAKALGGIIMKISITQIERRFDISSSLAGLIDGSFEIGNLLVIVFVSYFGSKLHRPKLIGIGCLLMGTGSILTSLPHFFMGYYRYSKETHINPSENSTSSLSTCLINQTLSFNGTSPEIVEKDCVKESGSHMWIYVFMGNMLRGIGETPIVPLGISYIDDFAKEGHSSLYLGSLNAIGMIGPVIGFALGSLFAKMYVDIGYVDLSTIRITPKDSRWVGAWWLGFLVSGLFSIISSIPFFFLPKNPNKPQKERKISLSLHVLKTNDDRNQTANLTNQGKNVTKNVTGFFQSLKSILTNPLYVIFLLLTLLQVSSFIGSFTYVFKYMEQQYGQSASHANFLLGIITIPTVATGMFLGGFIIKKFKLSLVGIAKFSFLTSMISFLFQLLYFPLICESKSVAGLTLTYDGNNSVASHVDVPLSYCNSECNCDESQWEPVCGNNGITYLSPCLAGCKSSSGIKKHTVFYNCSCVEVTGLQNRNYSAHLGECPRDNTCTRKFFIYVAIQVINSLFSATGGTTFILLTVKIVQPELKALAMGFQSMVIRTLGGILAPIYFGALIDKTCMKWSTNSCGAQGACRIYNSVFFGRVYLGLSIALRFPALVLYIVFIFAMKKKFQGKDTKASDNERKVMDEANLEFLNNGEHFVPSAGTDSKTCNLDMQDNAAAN
Procedure: as §1

[8] = mouse, in vivo, po, 50 mg/kg/day

SMILES: CC[C@@H]1NC(=O)[C@H]([C@H](O)[C@H](C)CCCCCCNC(C)=O)N(C)C(=O)[C@H](C(C)C)N(C)C(=O)[C@H](CC(C)C)N(C)C(=O)[C@H](CC(C)C)N(C)C(=O)[C@@H](C)NC(=O)[C@H](C)NC(=O)[C@H](CC(C)C)N(C)C(=O)[C@H](C(C)C)NC(=O)[C@H](CC(C)C)N(C)C(=O)[C@@H](C)N(C)C1=O [CRV431] (cyclo(A[dA][NMeL][NMeL][NMeV][NMeThr(4R-Me,4-(CH2)6NHAc)][Abu][dNMeA][NMeL]V[NMeL]))
- CC50 (six human cell types): 23.6 µM
- lethality (six human cell types; at the highest concentrations tested (up to 80 µM), 3 days): 100%
- Liver:Blood [CRV431] Ratio ([1]; CCl4, 50 mg/kg per day oral, day 42, 4 hours post-dose): 15.4 ± 10.4
- Liver:Blood [CRV431] Ratio ([1]; NASH, 50 mg/kg per day oral, day 189, 3 hours post-dose): 11.9 ± 8.5
- peak blood levels at which CRV431 efficacy occurred in mice ([1]; mouse, in vivo): 1.2 to 1.4 µg/mL
- Blood [1, 8]: 1.4 ± 1.5 µg/mL
- Liver [1, 8]: 11.6 ± 9.0 µg/g
- lowering of the amount of sirius red staining [2]: 43%
- pIC50 (BCRP): 4.64
- pIC50 ([3]; range over Cyp A, G, read-out: IC50 values, all cyclophilin isoforms): 8.14 to 8.60
- pIC50 ([3]; range over isoforms A, G (abstract), read-out: Inhibitory constant or IC50 values): 8.15 to 9.00
- CRV431 Inhibitory Potency vs. CsA (MRP2 [4]): 2.1× less
- pIC50 (MRP2 [5]): 4.68
- CRV431 Inhibitory Potency vs. CsA (MATE-2): Same (no inhibition)
- fold lower activity than CsA toward sodium-dependent taurocholic acid cotransporting polypeptide (NTCP): 45 fold
- pIC50 (NTCP; NTCP, HEK293): 4.34
- clearance fold difference, CRV431 vs CsA [6]: 3.5 fold
- inhibition of proliferation [7]: 40%
- pIC50 (BSEP): 5.85
- pIC50 (OATP1B3): 6.22
